Columns and labels:
[1] = system: finishing pigs (longissimus muscle); experiment: Carcass quality measures of finishing pigs fed Carnitine and Paylean (Example 1); type: in vivo; parameters: key to L*: lightness: 100 = perfect white, 0 = absolute black; key to Firmness: score 1 = soft and watery, 5 = firm and dry; Hue angle / Drip loss: unit not given here; settings: for Drip loss / Hue angle / L* / PH 45 m postmortem / PH 24 h postmortem / Saturation index / a* / a*/b* / b* / Temperature / Firmness / Marbling / Visual color: Carnitine 0 ppm; for Temperature: 45 minutes postmortem; for Firmness / Marbling / Visual color: score 1 to 5
Source text: Color is qualitatively measured using Minolta color-spectrometry, a process which evaluates the Hunter L* and a* values of the meat color, as well as by the saturation index and the Hue Angle value. Hunter L* value measures the lightness of the meat color and varies from 100 for perfect white to 0 for absolute black. Acceptable values for pork range from 35 to 55, with 40-45 values being most preferred by consumers.
The other Hunter value is related to the hue of the color of the meat, with increasing a* values indicating redness and decreasing a values indicating greenness. High quality pork has Hunter a* values which range from 7.5 to 12, and consumers prefer meat with 9-9.5 scores.
Hue Angle value measures the discoloration of meat. Increasing values indicate increasing discoloration of meat. Decreasing values indicate reduction of the discoloration. Acceptable pork Hue Angle values range from 48 to 54, and the preferred values range from 48-52.
The final spectrographic measurement is the saturation index, which is related to the strength of the color of the meat. Acceptable pork saturation index values range from 12 to 15.5, with values from 13-14.5 being preferred. The color of the meat is of particular importance in some export markets, such as Japan, Korea, Asia and South America. […] Acceptable marbling score ranges from 1 to 3, with 2.5 being preferred.
Drip loss is a measurement of the ability of the sample to retain water. In this procedure, a standardized amount of lean pork muscle, i.e., a cubic centimeter, is weighed, then suspended in an airtight container from a hook for 24 hours. The difference in weight from beginning to end of the 24 hour period represents the amount of water loss or purge. The greater the amount of purge loss, the poorer the pork quality. Changes in the pH of pork associated with postmortem metabolism affect the isoelectric point of the various amino acids in protein, and thus can affect the protein's ability to bind water. Pork with high drip loss is termed in the industry as “exudative” which is undesirable to both meat producers and consumers.
The firmness of the meat is measured visually on the score from 1 to 5, 1 being soft and watery, 5 being firm and dry. The acceptable score is 2-4, and the preferred score is 2.5-3.5. This characteristic of pork has become important due to recent attempts to genetically improve the leanness of the meat. The desired leanness has been accompanied by a negative impact on the meat firmness. As a result, approximately 30% of the meat now going through packing houses has been categorized as PSE (Pale Soft Exudative meat) and is unacceptable to the consumer, thus causing economic loss to the meat producer according to the National Meat Producers Council. Thus, there is an urgent need in the art for means of improving the quality (firmness, color, marbling) and carcass characteristics of the pork.
One hundred twenty-six gilts (initially 73.6 lb, PIC C22×L326) were allotted by weight and ancestry in a randomized complete block design to each of the nine experimental treatments arranged in a 3×3 factorial arrangement. There were two pigs/pen and seven replicates/treatment. Pigs were housed in an environmentally controlled building with 4-ft×4-ft slatted-floor pens.
Pigs were fed a corn-soybean meal diet composed of the following:
L-carnitine (0, 25, or 50 ppm) was added to the diet from 73.6 lb until slaughter (approximately 240 lb). Paylean (a registered trademark of Eli Lilly Company for ractopamine) treatments (0, 4.5, or 9 g/ton) were fed for the last four weeks of the experiment. The basal diet was formulated to contain 1.10% lysine from 73.6 to 164 lb, and 1.00% lysine from 164 lb until the end of the experiment. These quantities of Paylean are equivalent to 0, 5, and 10 ppm of ractopamine in the feed, respectively. […]

finishing pigs = experiment: Carcass characteristics of finishing pigs fed Carnitine and Paylean (Example 2); type: in vivo; settings: Paylean 9 g/ton, Carnitine 0 ppm
Description: Because of the dramatic and potentially economically important changes in pork quality observed in the data of Example 1, a second trial was conducted to confirm these observations. This experiment was conducted in the same facility as Example 1 and used the same diet in Table 1. The primary difference was that the 4.5 g/ton ractopamine level was not included; i.e., only 0 or 9 grams/ton ractopamine was combined with either 0, 25, or 50 ppm of added L-camitine.

SMILES: CC(CCc1ccc(O)cc1)NCC(O)c1ccc(O)cc1 (stereo not drawn) [Paylean, ractopamine, reference compound]
- Drip loss ([1]; Paylean 4.5 g/ton): 3.13
- Hue angle ([1]; Paylean 4.5 g/ton): 69.95
- L* ([1]; Paylean 4.5 g/ton): 60.78
- PH 45 m postmortem ([1]; Paylean 4.5 g/ton): 6.41
- PH 24 h postmortem ([1]; Paylean 4.5 g/ton): 5.79
- Saturation index ([1]; Paylean 4.5 g/ton): 16.76
- a* ([1]; Paylean 4.5 g/ton): 5.78
- a*/b* ([1]; Paylean 4.5 g/ton): 0.37
- b* ([1]; Paylean 4.5 g/ton): 15.69
- Temperature ([1]; Paylean 4.5 g/ton): 34.39 °C
- Firmness ([1]; Paylean 4.5 g/ton): 1.79
- Marbling ([1]; Paylean 4.5 g/ton): 1.35
- Visual color ([1]; Paylean 4.5 g/ton): 2.57
- Drip loss ([1]; Paylean 9 g/ton): 3.68
- Hue angle ([1]; Paylean 9 g/ton): 68.65
- L* ([1]; Paylean 9 g/ton): 61.53
- PH 45 m postmortem ([1]; Paylean 9 g/ton): 6.33
- PH 24 h postmortem ([1]; Paylean 9 g/ton): 5.71
- Saturation index ([1]; Paylean 9 g/ton): 17.12
- a* ([1]; Paylean 9 g/ton): 6.30
- a*/b* ([1]; Paylean 9 g/ton): 0.39
- b* ([1]; Paylean 9 g/ton): 15.90
- Temperature ([1]; Paylean 9 g/ton): 35.72 °C
- Firmness ([1]; Paylean 9 g/ton): 1.79
- Marbling ([1]; Paylean 9 g/ton): 1.64
- Visual color ([1]; Paylean 9 g/ton): 2.57
- Twenty-four hour pH ([1]; with increasing levels of Paylean, quadratic, P<0.06, highest at 4.5 g/ton): increased and then decreased
- Drip loss (finishing pigs): 4.85%
- Hue angle (finishing pigs): 65.14
- L* (finishing pigs): 59.72
- Saturation index (finishing pigs): 18.74
- Temperature 5 min (finishing pigs): 39.60 °C
- Temperature 15 min (finishing pigs): 40.42 °C
- Temperature 45 min (finishing pigs): 39.43 °C
- Temperature 1.5 h (finishing pigs): 35.99 °C
- Temperature 3 h (finishing pigs): 24.38 °C
- Temperature 6 h (finishing pigs): 12.04 °C
- a* (finishing pigs): 7.94
- a*/b* (finishing pigs): 0.46
- b* (finishing pigs): 16.97
- pH 0 min (finishing pigs): 7.16
- pH 5 min (finishing pigs): 6.79
- pH 15 min (finishing pigs): 6.59
- pH 45 min (finishing pigs): 6.14
- pH 1.5 h (finishing pigs): 5.89
- pH 3 h (finishing pigs): 5.59
- pH 6 h (finishing pigs): 5.61
- pH 24 h (finishing pigs): 5.58
- Firmness (finishing pigs; score 1 to 5): 1.99
- Marbling (finishing pigs; score 1 to 5): 1.85
- Visual cobra (finishing pigs; score 1 to 5): 2.75

From US20030235646A1, “Method for improving quality of meat by supplementing pig diets and concentrates used therefor” (Lonza Inc., priority 2002, published 2003)
